“Also recorded” adds a separate entry of the source.
Tests used:
[1] = tested on: rat hind foot kaolin-induced arthritis; test: Kaolin-induced arthritis test, second experiment, acute phase (volume of the foot at the 8th hour); type: in vivo; conditions: po, 8 h, Table IXa; for change in vivo at 25 mg/kg / change in vivo at 50 mg/kg / change in vivo at 100 mg/kg: 8th hour, read-out: percentage significant decrease in the volume of the treated foot; for ED50: foot volume, read-out: 50% active dose
Description: (§1) The […] of 0.05 ml of a sterile 10% strength suspension of kaolin into the metatarsal flexor sheath of the hind foot of a rat initially induces an oedematous reaction. An inflammatory arthritis then forms.
The early oedematous reaction appears from the first hour, and reaches its maximum between the fourth hour and the sixth hour. This is the manifestation of interest. The assessment of the volume of the foot enables the action of substances on the oedematous reaction to be studied. The measurements are carried out using a Giono and Chevilard plethysmometer.
(§2) The test products are administered orally (stomach tube) one hour before the injection of the kaolin.
(§3) In a second experiment, a more elaborate study was performed in order to ascertain the effect of the products, on the one hand on the acute phase of the inflammatory reaction (measured by the volume of the foot at the 8th hour), and on the other hand on the chronic phase (activity measured by the weight of the foot at the 12th hour).
As in the previous experiment, ketoprofen was used as the comparative product:
The results are expressed as a percentage significant decrease in the volume of the treated foot compared with the controls.

[2] = tested on: foreign-body (sponge) granuloma in rats; test: Experimental granuloma induced by foreign body, histological study; type: in vivo, Wistar rats; conditions: second experiment, day 8; Table XIa
Description: (§4) This test consists in studying the subacute cellular phase which is developed in the 8 days which follow the implantation of a foreign body, a sponge of non-resorbable plastic, in the dorsal subcutaneous connective tissue in rats.
The granulomas formed are removed 8 days after the implantation; a histological study is carried out after fixing the tissue and staining sections with hematein/ eosin. The observation is more especially concerned with the cell population of the primary phase of the formation of the granulation tissue: the reticulohistocytic cells, lymphocytes and more especially the macrophages.
(§5) The animals used are Wistar rats weighing 120-140 g and of the same origin, maintained under the same conditions of housing throughout the treatment (8 days).
(§6) The compounds of the invention are administered orally, in a gum suspension, in the morning in a fasted state, using an oesophageal tube.
After 8 days of treatment, the rats are sacrificed by decapitation and the granulomas removed and prepared for the purpose of histological examination.
The experiment conditions are as follows:
The animals are distributed in batches of 10;
Each test product is administered at 2 doses, of 50 and 100 mg, respectively, to 2 batches of 10 animals;
Ketoprofen is used by way of reference product at the same 2 doses and under the same conditions; and
A batch of 10 control animals receives no treatment.
(§7) In this experiment, on the one hand a histological study of the granulomas is performed by sampling on day 8 (results recorded in Table XIa), and on the other hand a study of the weight of the granulomas was performed 10 days after the implantation (results recorded in Table XIb).

[3] = tested on: pain threshold of brewer's yeast inflamed rat hind foot; test: Randall and Sellitto's test (analgesic activity); type: in vivo; conditions: second experiment, Table XIIa; for change in vivo at 25 mg/kg: 25 mg/kg oral; for change in vivo at 25 mg/kg / change in vivo at 50 mg/kg / change in vivo at 100 mg/kg: read-out: percentage increase in the mean pain threshold; for change in vivo at 50 mg/kg: 50 mg/kg oral; for change in vivo at 100 mg/kg: 100 mg/kg oral
Description: Inflammation increases the sensitivity to pain, in particular to pressure, and analgesics raise the threshold of the sensitivity.
The inflammation is obtained by injecting 0.1 ml of a 20% strength aqueous suspension of brewer's yeast under the plantar aponeurosis of one of the hind feet. […] The pain threshold is assessed in terms of the force necessary and sufficient to initiate a characteristic reaction of withdrawing the foot.
The sensitivity to pain of the inflamed foot reaches a plateau 4 hours after the injection of the brewer's yeast, and then remains stable until the 6th hour. The pain threshold of the inflamed foot in control rats weighing 140 g is reached for pressures of 50 to 60 g, whereas it is around 160 g for the intact foot.
The action of the substance administered orally to series of 10 rats is expressed in terms of the percentage increase in the mean pain threshold, compared with that measured in the rats of a control series of 10 animals which have not received a compound of the invention.
The test products are administered orally (stomach tube) one hour before the injection of brewer's yeast.
The comparative compound used is ketoprofen.

[4] = tested on: biosynthesis of leukotrienes B4 (LTB4), human polymorphonuclear leukocytes; test: Biosynthesis of LTB4, isomers and oxidized metabolites in human polymorphonuclear leukocytes; type: cell-based; conditions: Leukocyte, second experiment, read-out: Percentage inhibition of LTB4 formation
Description: Polymorphonuclear leukocytes are isolated from human blood and used during the 6 hours following the withdrawal. The viability of the cells is checked by trypan blue exclusion.
5×10^6 cells are incubated for 10 minutes at 37° C. in the presence of the test product dissolved in DMSO, and are stimulated with ionophore A 23187 (Galbiochem, 10 μM) in PBS buffer at pH 7.4, Ca^2+ and Mg^2+ =1 μM.
100 ng of prostaglandin B2 (PGB2), dissolved in methanol, are added at the end of the reaction to act as an internal standard.
On centrifugation, the culture supernatant is withdrawn. The latter is retrieved under argon and stored at -80° C. until analysed by HPLC.
This analysis is carried out by injecting 250 μl onto a 5 μm ODS ultrasphere column (Beckmann), with a gradient of acetonitrile (20-80%) in water, at pH 7.4.
The amounts of the different products which absorb at 269 nm, i.e. leukotrienes B4 (LTB4), isomers of LTB4 and oxidized metabolites of LTB4, are estimated by comparison with the internal standard.
The test product is used at a concentration of 40 μM.
They are expressed either as a percentage inhibition, or as a percentage increase in the production of LTB4, isomers of LTB4 and oxidized metabolites of LTB4 (designated by +).
The experimental model is the same as that described in Section 2.1. Other products are tested by comparison with the compound of the invention no. 1574, used as a control.

[5] = tested on: foreign-body (sponge) granuloma in rats; test: Experimental granuloma induced by foreign body, weight of the granulomas; type: in vivo, Wistar rats; conditions: Rattus norvegicus, po, 240 h, 10 days after implantation, Table XIb, read-out: decrease in the weight of the granulomas
Description: as §4, §5, §6, §7

[6] = tested on: rat hind foot carragheenin-induced oedema; test: Carragheenin-induced oedema test; type: in vivo; conditions: 3 h, second experiment, Table Xa, read-out: percentage inhibition of the inflammation; for change in vivo at 25 mg/kg: 25 mg/kg oral; for change in vivo at 50 mg/kg: 50 mg/kg oral; for change in vivo at 100 mg/kg: 100 mg/kg oral
Description: In this test, 10 rats are used per test compound of the invention. Control batches of 10 rats also receive either the comparative compound (ketoprofen) or exclusively an NaCl solution.
The compounds of the invention are administered orally (stomach tube) one hour before the injection of carragheenin.
The carragheenin is suspended at a concentration of 1% in a 0.9% isotonic sodium chloride solution. The volume injected into the rat's foot is 0.20 ml.
The volume of the foot is measured before the injection and 3 hours later. The antagonistic effect of the products towards carragheenin is reflected in the inhibition of the volume of the oedema compared with control rats. The latter receive only isotonic NaCl solution under identical conditions.

[7] = tested on: rat hind foot kaolin-induced arthritis; test: Kaolin-induced arthritis test, second experiment, chronic phase (weight of the foot at the 12th hour); type: in vivo; conditions: po, 12 h, Table IXb; for change in vivo at 25 mg/kg / change in vivo at 50 mg/kg / change in vivo at 100 mg/kg: 12th hour, read-out: percentage significant decrease in the weight of the treated foot; for ED50: foot weight, read-out: 50% active dose
Description: as §1, §2, §3
As in the previous experiment, ketoprofen was used as the comparative product: […]

Work on `O=C(O)CCCCCCCCCCCNS(=O)(=O)c1ccc(Cl)cc1C(=O)c1ccccc1Cl` [Compound 1755] yielded a change in vivo at 25 mg/kg [1] of -48 ± 5%, a change in vivo at 50 mg/kg [1] of -50 ± 5% and a change in vivo at 100 mg/kg [1] of -55 ± 5%. The ED50 [1] was 25 mg/kg, the “histological study of the granuloma (inflammatory connective / granulation tissue)” value [2] was “Granuloma poorly developed” and the change in vivo at 25 mg/kg [3] was 40%. It also gave a change in vivo at 50 mg/kg [3] of 50%, a change in vivo at 100 mg/kg [3] of 55% and an inhibition at 40 µM [4] of 100%. It also gave a change in vivo at 25 mg/kg [5] of -45%, a change in vivo at 50 mg/kg [5] of -50% and a change in vivo at 100 mg/kg [5] of -55%. It also gave a change in vivo at 25 mg/kg [6] of -45%, a change in vivo at 50 mg/kg [6] of -52% and a change in vivo at 100 mg/kg [6] of -55%. For the same molecule, the change in vivo at 25 mg/kg [7] was -45%, the change in vivo at 50 mg/kg [7] was -55% and the change in vivo at 100 mg/kg [7] was -58%. It also gave an ED50 [7] of 25 mg/kg.

`O=C(O)CCCCCCCCCCNS(=O)(=O)c1ccc(Cl)c(C(=O)c2ccc(Cl)cc2)c1` [Compound 1761] was tested, and the change in vivo at 25 mg/kg [1] was -38 ± 5%, the change in vivo at 50 mg/kg [1] was -45 ± 5% and the change in vivo at 100 mg/kg [1] was -50 ± 5%. For the same molecule, the ED50 [1] was 100 mg/kg, the “histological study of the granuloma (inflammatory connective / granulation tissue)” value [2] was “Diminished production of inflammatory granulation” and the change in vivo at 25 mg/kg [3] was 40%. For the same molecule, the change in vivo at 50 mg/kg [3] was 45%, the change in vivo at 100 mg/kg [3] was 50% and the inhibition at 40 µM [4] was 100%. It also gave a change in vivo at 25 mg/kg [5] of -25%, a change in vivo at 50 mg/kg [5] of -30% and a change in vivo at 100 mg/kg [5] of -45%. It also gave a change in vivo at 25 mg/kg [6] of -30%, a change in vivo at 50 mg/kg [6] of -35% and a change in vivo at 100 mg/kg [6] of -45%. The change in vivo at 25 mg/kg [7] was -40 ± 5%, the change in vivo at 50 mg/kg [7] was -45 ± 5% and the change in vivo at 100 mg/kg [7] was -50 ± 5%. For the same molecule, the ED50 [7] was 100 mg/kg.

For `O=C(O)CCCCCCCCCCNS(=O)(=O)c1ccc(Cl)c(C(=O)c2ccc(Cl)cc2Cl)c1` [Compound 1763], the change in vivo at 25 mg/kg [1] was -35 ± 5%, the change in vivo at 50 mg/kg [1] was -45 ± 5% and the change in vivo at 100 mg/kg [1] was -50 ± 5%. The ED50 [1] was 100 mg/kg, the “histological study of the granuloma (inflammatory connective / granulation tissue)” value [2] was “Peripheral shell of low density” and the change in vivo at 25 mg/kg [3] was 40%. It also gave a change in vivo at 50 mg/kg [3] of 42%, a change in vivo at 100 mg/kg [3] of 45% and an inhibition at 40 µM [4] of 100%. It also gave a change in vivo at 25 mg/kg [5] of -15%, a change in vivo at 50 mg/kg [5] of -20% and a change in vivo at 100 mg/kg [5] of -45%. It also gave a change in vivo at 25 mg/kg [6] of -30%, a change in vivo at 50 mg/kg [6] of -35% and a change in vivo at 100 mg/kg [6] of -45%. It also gave a change in vivo at 25 mg/kg [7] of -38 ± 5%, a change in vivo at 50 mg/kg [7] of -40 ± 5% and a change in vivo at 100 mg/kg [7] of -48 ± 5%. The ED50 [7] was 100 mg/kg.

`O=C(O)CCCCCCCCCCCNS(=O)(=O)c1ccc(Cl)c(C(=O)c2ccc(Cl)cc2Cl)c1` [Compound 1764] showed a change in vivo at 25 mg/kg [1] of -45 ± 5%, a change in vivo at 50 mg/kg [1] of -55 ± 5% and a change in vivo at 100 mg/kg [1] of -60 ± 5%. For the same molecule, the ED50 [1] was 50 mg/kg, the “histological study of the granuloma (inflammatory connective / granulation tissue)” value [2] was “Peripheral shell of low density; also recorded: lightly inflammatory” and the change in vivo at 25 mg/kg [3] was 50%. For the same molecule, the change in vivo at 50 mg/kg [3] was 55%, the change in vivo at 100 mg/kg [3] was 58% and the ED50 ([3]; po, analgesia, read-out: 50% active dose) was 25 mg/kg. For the same molecule, the inhibition at 40 µM [4] was 100%, the change in vivo at 25 mg/kg [5] was -45% and the change in vivo at 50 mg/kg [5] was -50%. It also gave a change in vivo at 100 mg/kg [5] of -55%, a change in vivo at 25 mg/kg [6] of -45% and a change in vivo at 50 mg/kg [6] of -48%. For the same molecule, the change in vivo at 100 mg/kg [6] was -52%, the change in vivo at 25 mg/kg [7] was -45 ± 5% and the change in vivo at 50 mg/kg [7] was -52 ± 5%. The change in vivo at 100 mg/kg [7] was -58 ± 5% and the ED50 [7] was 50 mg/kg.
